# Measured values taken from article PMC5733478, “A Non-imaging High Throughput Approach to Chemical Library Screening at the Unmodified Adenosine-A3 Receptor in Living Cells” (Frontiers in Pharmacology, 2017).
# Structures can show the parent of a compound that is named as a salt.
# Molecular target: T1, human A3AR (Homo sapiens, UniProt P0DMS8)
# T1 construct: expressed in transfected cells
# T1 sequence (P0DMS8 1-318): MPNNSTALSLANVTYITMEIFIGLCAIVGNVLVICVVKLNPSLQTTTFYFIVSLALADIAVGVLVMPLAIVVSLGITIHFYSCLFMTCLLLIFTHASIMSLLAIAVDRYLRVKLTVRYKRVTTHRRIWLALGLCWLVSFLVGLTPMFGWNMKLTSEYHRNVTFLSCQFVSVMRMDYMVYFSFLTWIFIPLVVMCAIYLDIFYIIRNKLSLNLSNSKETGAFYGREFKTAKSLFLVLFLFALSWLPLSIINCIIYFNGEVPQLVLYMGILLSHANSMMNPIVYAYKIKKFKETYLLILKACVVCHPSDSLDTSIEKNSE
# Assay: LOPAC library primary screen: single concentration (10 μM) inhibition of 25 nM CA200645 binding, PHERAstar FS
# Settings: not given
row,SMILES,% 25 nM CA200645 binding [%]
1,CC(C)C[C@H]1C(=O)N2CCC[C@H]2[C@]2(O)O[C@](NC(=O)[C@@H]3C=C4c5cccc6[nH]c(Br)c(c56)C[C@H]4N(C)C3)(C(C)C)C(=O)N12.CS(=O)(=O)O [(+)-Bromocriptine methanesulfonate],60.6 ± 9.2
2,CC1=C(C(=O)O)N2C(=O)[C@@H](NC(=O)[C@H](N)c3ccccc3)[C@H]2SC1.O [Cephalexin hydrate],101.0 ± 8.0
3,CC[C@H]1CN2CCc3cc(OC)c(OC)cc3[C@@H]2C[C@@H]1C[C@H]1NCCc2cc(OC)c(OC)cc21 [Emetine dihydrochloride hydrate],102.7 ± 9.1
4,NC(CO)(CO)CO.O=C(c1ccccc1)c1ccc2n1CCC2C(=O)O (centres unmarked) [Ketorolac tris salt],93.7 ± 13.0
5,C[C@@]12C(=O)OC(=O)[C@]1(C)[C@H]1CC[C@@H]2O1 [Cantharidin],89.3 ± 25.6
6,Cc1ccc(-c2cc(C(F)(F)F)nn2-c2ccc(S(N)(=O)=O)cc2)cc1 [Celecoxib],72.6 ± 20.4
7,C[N+](C)(C)CCOC(=O)CCC(=O)OCC[N+](C)(C)C [Succinylcholine chloride],98.6 ± 15.7
8,CN/C(=N/CCSCc1nc[nH]c1C)NC#N [Cimetidine],94.0 ± 4.0
9,C[C@@H]1O[C@@H]1P(=O)(O)O [Phosphomycin disodium],98.9 ± 12.7
10,Nc1nc(N)c(N=O)c(OCC2CCCCC2)n1 [NU6027],80.6 ± 9.9
11,O=c1cc(-c2ccccc2F)[nH]c2cc3c(cc12)OCO3 [CHM-1 hydrate],97.3 ± 5.3
12,Cn1cnc([N+](=O)[O-])c1Sc1ncnc2nc[nH]c12 [Azathioprine],93.9 ± 5.0
13,NCC1(CC(=O)O)CCCCC1 [Gabapentin],80.7 ± 22.8
14,C#CC(N)CCC(=O)O (centres unmarked) [gamma-Acetylinic GABA],97.6 ± 3.0
15,Cc1cnc(NC(=O)C2=C(O)c3ccccc3S(=O)(=O)N2C)s1 [Meloxicam sodium],93.6 ± 6.8
16,CN1CCC[C@@H]1Cc1c[nH]c2ccc(Nc3ncccc3[N+](=O)[O-])cc12 [CP-135807],96.1 ± 6.8
17,NCCCCNCCCN [Spermidine trihydrochloride],102.2 ± 19.0
18,CSC(=N)N.CSC(=N)N.O=S(=O)(O)O [S-Methylisothiourea hemisulfate],112.2 ± 21.2
19,CC(C)c1ccc2c(c1)c(SC(C)(C)C)c(CC(C)(C)C(=O)O)n2Cc1ccc(Cl)cc1 [MK-886],98.7 ± 12.2
20,Br.Oc1cc2c(c(Cl)c1O)CCNCC2c1ccccc1 (racemic) [(±)-6-Chloro-PB hydrobromide],99.3 ± 4.1
21,NC/C=C\C(=O)O [cis-4-Aminocrotonic acid],103.0 ± 10.1

row,SMILES,% 25 nM CA200645 binding [%]
1,O=C1CCc2cc(OCCCCc3nnnn3C3CCCCC3)ccc2N1 [Cilostazol],105.8 ± 41.7
2,COc1cc(/C=C(\C#N)C(=O)c2ccc(O)c(O)c2)cc(I)c1O [I-OMe-Tyrphostin AG 538],71.3 ± 34.4
3,Nc1ncnc2c1ncn2[C@@H]1O[C@H](COP(=O)(O)CP(=O)(O)OP(=O)([O-])[O-])[C@H](O)C1O.[Li+].[Li+] (some centres unmarked),102.3 ± 5.3
4,Cl.O=C(O)Cc1c[nH]cn1 [Imidazole-4-acetic acid hydrochloride],99.3 ± 14.9
5,CC#CCOC(=O)c1c(C)nc2sc3c(c2c1N)CCC(O)C3 (centres unmarked) [SB 205384],95.1 ± 6.2
6,O=C(O)c1ccccc1Nc1ccccc1 [N-Phenylanthranilic acid],95.2 ± 6.4
7,NCCS(=O)O [Hypotaurine],94.6 ± 26.1
8,Br.Cc1o[nH]c(=O)c1CC(N)C(=O)O (racemic) [(±)-AMPA hydrobromide],96.2 ± 10.6
9,CC(=O)O[C@H]1C[C@@]2(C)[C@@H](C[C@@H](O)[C@H]3[C@@]4(C)CC[C@@H](O)[C@@H](C)[C@@H]4CC[C@@]32C)/C1=C(\CCC=C(C)C)C(=O)[O-].[Na+] [Fusidic acid sodium],93.0 ± 9.1
10,Cl.Cl.Cn1cnc(CCN)c1 [1-Methylhistamine dihydrochloride],99.7 ± 10.5
11,COc1ccc(-c2cc3nccn3c(Nc3ncccc3C(N)=O)n2)cc1OC.Cl.O [BAY 61-3606 hydrochloride hydrate],83.8 ± 10.8
12,"Cn1c(=O)c2c(ncn2C)n(C)c1=O [caffeine, reference compound]",95.8 ± 4.7
13,CCN(CC)CCOc1ccc(Nc2ncc3cc(-c4c(Cl)cccc4Cl)c(=O)n(C)c3n2)cc1.O [PD-166285 hydrate],108.1 ± 4.5
14,CN[C@H](CC(=O)O)C(=O)O [N-Methyl-D-aspartic acid],109.5 ± 4.3
15,"CNC(=O)[C@H]1O[C@@H](n2cnc3c(NCc4ccc(N)cc4)ncnc32)[C@H](O)[C@@H]1O [AB-MECA, reference compound]",48.5 ± 9.1
16,NC(=O)c1ncn([C@@H]2O[C@H](CO)[C@@H](O)[C@H]2O)c1O [Mizoribine],101.6 ± 4.8
17,Cl.NCCNS(=O)(=O)c1cccc2c(Cl)cccc12 [A3 hydrochloride],95.5 ± 8.6
18,COc1ccc(/C=C/c2nc(NCCCN(C)C)c3ccccc3n2)cc1.Cl.Cl.O [CP-31398 dihydrochloride hydrate],111.8 ± 1.4
19,C[C@@]1(C2CCCC2)Cc2cc(OCC(=O)O)c(Cl)c(Cl)c2C1=O [R(+)-IAA-94],95.5 ± 13.0
20,CN[C@@H]1C[C@@H](c2ccc(Cl)c(Cl)c2)c2ccccc21 [Indatraline hydrochloride],103.0 ± 8.6
21,CCCCc1ncc(/C=C(\Cc2cccs2)C(=O)O)n1Cc1ccc(C(=O)O)cc1 [Eprosartan mesylate],97.5 ± 15.0

row,SMILES,% 25 nM CA200645 binding [%]
1,CNCCCC12CCC(c3ccccc31)c1ccccc12 [Maprotiline hydrochloride],93.0 ± 35.9
2,O=c1c(-c2ccc(O)cc2)coc2cc(O)ccc12 [Daidzein],88.9 ± 6.0
3,CC1(C(=O)O)C2CCC(O2)C1(C)C(=O)O (centres unmarked) [Cantharidic Acid],97.5 ± 13.0
4,Oc1ccccc1O [Pyrocatechol],91.0 ± 7.4
5,CC(=O)c1ccc(S(=O)(=O)NC(=O)NC2CCCCC2)cc1 [Acetohexamide],101.4 ± 13.1
6,Br.CN1Cc2sccc2C(c2ccc(O)c(O)c2)C1 (centres unmarked) [SKF-89145 hydrobromide],97.3 ± 9.6
7,OCCN1CCN(CCCN2c3ccccc3C=Cc3ccccc32)CC1 [Opipramol dihydrochloride],100.5 ± 7.4
8,N#CCCN.N#CCCN.O=C(O)/C=C/C(=O)O [3-Aminopropionitrile fumarate],91.9 ± 6.3
9,C[N+](C)(C)CCCCCC[N+](C)(C)C.[Cl-].[Cl-] [Hexamethonium dichloride],100.8 ± 9.2
10,CN(C)CCCN1c2ccccc2CCc2ccc(Cl)cc21 [Clomipramine hydrochloride],99.4 ± 3.8
11,Cc1[nH]c(=O)c(C#N)cc1-c1ccncc1 [Milrinone],97.0 ± 4.9
12,CC(C)COCC(CN(Cc1ccccc1)c1ccccc1)N1CCCC1 (centres unmarked) [Bepridil hydrochloride],101.8 ± 6.3
13,CCCCCCCCCCC(C)(C)C(=O)Nc1c(OC)cc(OC)cc1OC [CI-976],89.4 ± 17.7
14,NS(=O)(=O)c1cc2c(cc1Cl)NCNS2(=O)=O [Hydrochlorothiazide],95.6 ± 3.9
15,CC(=O)S[C@@H]1CC2=CC(=O)CC[C@]2(C)[C@H]2CC[C@@]3(C)[C@@H](CC[C@@]34CCC(=O)O4)[C@H]12 [Spironolactone],94.5 ± 9.9
16,CN(C)C(=O)Oc1cccc([N+](C)(C)C)c1 [Neostigmine bromide],100.2 ± 23.4
17,Cc1cc([C@@H]2CCCN2C)on1.Cl [ABT-418 hydrochloride],101.9 ± 4.7
18,CS(=O)(=O)c1cccc(CNc2nc(Nc3ccc4c(c3)CCC(=O)N4)ncc2C(F)(F)F)c1 [PF-573228],54.7 ± 30.2
19,"Br.C=CCN1CCc2cc(O)c(O)cc2C(c2ccccc2)C1 (racemic) [(±)-SKF 38393, N-allyl-, hydrobromide]",99.7 ± 11.6
20,COc1ccc(C(=O)NCc2cccnc2)cc1C(=O)NCc1cccnc1 [Picotamide],109.0 ± 15.4

# Same assay, conditions: % of 25 nM CA200645 binding in the presence of 10 μM compound, LOPAC full screen, A3AR CHO cells
row,SMILES,% Total CA200645 binding [%]
1,"CNC(=O)[C@H]1O[C@@H](n2cnc3c(NCc4ccc(N)cc4)ncnc32)[C@H](O)[C@@H]1O [AB-MECA, reference compound]",49.5 ± 5.8

# Same assay, conditions: % of control wells (1% DMSO and 25 nM CA200645); compounds at 10 µM; whole live cells expressing A3AR; mean ± SD, three experiments in duplicate
row,SMILES,% 25 nM CA200645 binding [%]
1,CS(=O)(=O)c1ccc(-n2nc(C(F)(F)F)cc2-c2ccc(F)cc2)cc1 [SC-58125],96.5 ± 13.6

# Same assay, conditions: % of control wells (1% DMSO and 25 nM CA200645); compounds at 10 µM; whole live cells expressing the A3AR; mean ± SD, three experiments in duplicate
row,SMILES,% 25 nM CA200645 binding [%]
1,O=C1NC(c2cccc([N+](=O)[O-])c2)=CCN1c1ccccc1O [Icilin],88.5 ± 5.8

# Same assay, conditions: compounds tested at 10 µM; % of control wells (1% DMSO and 25 nM CA200645); whole live cells expressing the A3AR; mean ± SD, three experiments in duplicate
row,SMILES,% 25 nM CA200645 binding [%]
1,c1ccc2c(c1)OCC(C1=NCCN1)O2 (centres unmarked) [Idazoxan hydrochloride],112.7 ± 7.0
2,Nc1ccc(S(=O)(=O)Nc2ccnn2-c2ccccc2)cc1 [Sulfaphenazole],89.1 ± 34.9
3,C[N+]1(C)[C@@H]2CC[C@H]1C[C@@H](OC(=O)C(CO)c1ccccc1)C2 (some centres unmarked) [Atropine methyl nitrate],90.8 ± 8.8
